Key:
[1] = tested on: horses; test: Heart rate during treadmill exercise training with oral L-carnitine supplementation; format: in vivo, horse
[2] = LC concentration in M. glutaeus med. muscle biopsies; format: in vivo, horse; conditions: horses
Text: LC was obtained as commercially available free L-carnitine (Carniking® from Lonza Ltd.). After a first standardised exercise test (SET) during the whole experiment period (5 weeks training, 15 weeks detraining) a group of 4 Trotters received 10 g of LC/d offered with concentrate in two feed portions daily, as essentially described in example 1, while a group of 4 Trotters served as non-supplemented controls. All horses were two years old and were descendants from 1 stallion. The treadmill training program consisted of 8 aerobic, static exercise sessions (15 min warmup, 60 min exercise at an intensity level which maintained a blood lactate concentration of 2.0 mmol/l (VLA 2.0)) and 8 anaerobic exercise sessions (15 min, warm up, followed by 15 steps of graded exercise intensities of 1 min duration each, starting at VLA 4.0). During the dynamic exercises running speed was incremented every minute by 0.3 m/s and ranged from about of 5 m/s to 14 m/s. […]
Muscle biopsies from M. glutaeus med. and venous blood samples were collected at the beginning (1st SET) and the end of training (2nd SET) and at the beginning and the end of the 1st (beginning of training) and 8th (end of training) static and dynamic exercise and after 5 and 10 weeks of detraining. […] Heart rates were continuously monitored during exercises with a polar horse tester.

[3] = tested on: horses; test: Plasma glucose and blood lactate during standardised exercise test (SET); format: in vivo, horse; conditions: 10 g LC/d
[4] = tested on: rats; test: Training-induced bradycardia in rats; format: in vivo, rat
[5] = tested on: swine; test: Training-induced bradycardia in swine; format: in vivo

C[N+](C)(C)C[C@H](O)CC(=O)[O-] [L-carnitine]
Heart rate at end of incremented, high intensity (anaerobic) exercise, post-training ([1]; N=4, 10 g LC/d, end of 15 steps of +0.3 m/s, after 5 weeks training, mean): 196 beats/min
Heart rate at end of incremented, high intensity (anaerobic) exercise, pre-training ([1]; N=4, 10 g LC/d, end of 15 steps of +0.3 m/s, pre-training, mean): 209 beats/min
Heart rate at start of incremented, high intensity (anaerobic) exercise, post-training ([1]; N=4, 10 g LC/d, start at VLA 4.0, after 5 weeks training, mean): 143 beats/min
Heart rate at start of incremented, high intensity (anaerobic) exercise, pre-training ([1]; N=4, 10 g LC/d, start at VLA 4.0, pre-training, mean): 150 beats/min
Decline of post-training heart rate at equivalent work loads versus start of training ([1]; SET, 10 g LC/d for 5 weeks training, FIG. 2): 7 beats/minute
Change in heart rate at increasing exercise work loads, end versus start of training ([1]; SET, treadmill speeds 5 to 9 m/s, 10 g LC/d, 5 weeks): significant (p<0.001) reduction in heart rate
Heart rate during moderate intensity (aerobic) exercise, post-training ([1]; Trotters N=4, 10 g LC/d oral, 60 min treadmill at VLA 2.0, after 5 weeks training, mean ± SD): 122 ± 6 beats/min
Heart rate during moderate intensity (aerobic) exercise, pre-training ([1]; Trotters N=4, 10 g LC/d oral, 60 min treadmill at VLA 2.0, pre-training, mean ± SD): 130 ± 7 beats/min
Elevation of LC concentration in M. glutaeus med. ([2]; 10 g LC/d oral, five weeks of supplementation): about 50%
LC concentration in the muscle during detraining period ([2]; 10 g LC/d, whole detraining period): remained at this high level
Exercise-induced increase of blood lactate ([3]; FIG. 1): lower
Concentration of glucose in plasma during exercise, second SET versus first SET ([3]; end of 5 weeks training): lower concentrations of glucose in plasma during exercise
Enhancement of training-induced bradycardia [4]: enhancement of training-induced bradycardia was equally achieved
Enhancement of training-induced bradycardia [5]: enhancement of training-induced bradycardia was equally achieved
